Measurements taken from patent US20260132165A1, “MODIFIED NUCLEOSIDE ANALOGUE AND USE THEREOF, AND NUCLEOSIDE ANALOGUE-CONTAINING DOUBLE-STRANDED OLIGONUCLEOTIDE AND USE THEREOF” (RIGERNA THERAPEUTICS (BEIJING) CO., LTD., priority 2023, published 2026).

System: target gene SOD1
Experiment: Test Example 10: inhibitory activity on SOD1 in mouse adipose and heart tissues by different routes of administration
Format: in vivo, C57BL/6j mice
Conditions: D14; for inhibitory activity by different routes of administration: subcutaneous vs tail vein injection, same dose 5 mg/kg; for Subcutaneous % Mean value of inhibition rate: subcutaneous administration 5 mg/kg; for Intravenous % Mean value of inhibition rate: tail vein injection 5 mg/kg
Protocol: RNA extraction: the above tissue samples were taken out from the RNAlater, and smashed for 60 s in Tissuelyser type II full-automatic tissue homogenizer, and total RNAs of various tissue samples were extracted using the full-automatic nucleic acid extraction instrument and the nucleic acid extraction kit from Zhejiang Hanwei Science and Technology Co. Ltd. according to methods described in instructions.
Reverse transcription reaction: 1 μg of the extracted total RNAs of the tissue samples were taken, and configured into 20 μL of reverse transcription system according to a method described in kit instructions by using a reverse transcription kit (Reverse Transcription System, A3500) from Promega Corporation and selecting Oligo (dT)15 reverse transcription primers, and the reverse transcription reaction was completed. After the reaction was ended, 80 μL of RNase-Free water was added into the reverse transcription system to provide cDNA solution for Real-time PCR detection.
Real-time PCR detection: 20 μL of Real-time PCR reaction system per PCR detection well was configured according to a method described in kit instructions using SYBR™ Select Master Mix (Catalog number: 4472908) reagent from ABI company. Each detection system contained 5 μL of cDNA template obtained from the above reverse transcription reaction, 10 μL of SYBR™ Select Master Mix, 0.5 μL of 10 μM upstream primers, 0.5 μL of 10 μM downstream primers, and 4 μL of RNase-Free H2O. The configured reaction system was subjected to Real-time PCR amplification on ABI StepOnePlus PCR instrument by a three-step method, wherein an amplification procedure was pre-denaturation at 95° C. for 10 min, then denaturation at 95° C. for 30 s, annealing at 60° C. for 30 s, and extension at 72° C. for 30 s; and processes of denaturation, annealing, and extension were repeated for 40 cycles. Gene expression differences were calculated by the ΔΔCt method after completion of the procedure.
In the real-time fluorescence quantitative PCR method, relative quantitative calculation of remaining expression level and inhibition rate of gene mRNA of interest in various test groups was performed by the ΔΔCt method, and the calculation method is as follows:
The present test example evaluated, by an evaluation method for inhibitory activity on a target gene in mice, the inhibitory activity of siRNA sequence RZ899090 with the sense strand with the NM073 conjugation at Position 4 on the target gene SOD1 of interest in mice.
6-8 Week-old C57BL/6j mice were randomly grouped by body weight, 5 per group, 4 groups in total. Mice in one of the groups were dosed with the above siRNA conjugate by tail vein injection, with an administration dose of 5 mg/kg, and an administration volume of 150 μL. One group was dosed with the above siRNA conjugate by subcutaneous administration, with an administration dose of 5 mg/kg, and an administration volume of 5 ml/kg. The other two groups were PBS control groups, and were respectively administered with the same volume of siRNA conjugate-free PBS solution by tail vein injection and subcutaneous administration. The day of administration was recorded as D0, and the mice were sacrificed on D14 after administration. Paragonadal fat and heart tissues were respectively taken and stored in the RNAlater. RNA extraction, reverse transcription, and real-time fluorescence quantitative detection were performed on various tissues according to the above method, and gene expression differences were calculated by the above ΔΔCt method.

[1] = mouse adipose tissues (paragonadal fat)

## RZ899090: siRNA sequence with the sense strand with the NM073 (C18) conjugation at Position 4; SEQ ID NO: 15 / 23 (sense UUUNAAUCCUCACUCUAAA; antisense UUUAGAGUGAGGAUUAAAAUG; NM073 (C18) conjugate at sense position 4; modified_base 1..2 OTHER; 2'-methoxy and 5'-thiophosphate modified nucleotides; modified_base 3 OTHER; 2'-methoxy modified nucleotide; modified_base 4 OTHER; n is the nucleotide analog NM073 as described in the disclosure.; modified_base 5..6 OTHER; 2'-methoxy modified nucleotides; modified_base 7..10 OTHER; 2'-fluoro modified nucleotides; modified_base 11..19 OTHER; modified_base 1 OTHER; 2'-methoxy and 5'-thiovinylphosphonate modified nucleotide; modified_base 2 OTHER; 2'-fluoro and 5'-thiophosphate modified nucleotide; modified_base 3..5 OTHER; …)
Adipose tissues
  inhibitory activity by different routes of administration: comparable inhibitory activity in the fat
heart
  inhibitory activity by different routes of administration: comparable inhibitory activity in heart
[1]
  Subcutaneous % Mean value of inhibition rate: 77.05%
  Intravenous % Mean value of inhibition rate: 80.33%
Mouse heart tissues
  Subcutaneous % Mean value of inhibition rate: 73.71%
  Intravenous % Mean value of inhibition rate: 76.57%
